These results are taken from patent US20230172984A1, “CLEARANCE OF SENESCENT CELLS BY ACTIVATION OF iNKT CELLS” (THE REGENTS OF THE UNIVERSITY OF CALIFORNIA, priority 2020, published 2023).

Assay type in all cases: in vivo, mouse
In assay [1] the test system is lung parenchymal iNKT cells. Put plainly: Bleomycin-induced lung injury model, flow cytometry of lung iNKT cells. The note with it: bleomycin-injured mice, GalCer day 10, harvest day 14; FIG. 4C. On the procedure: MATERIALS AND METHODS. Mouse husbandry. All procedures involving mice were performed according to the IACUC standards following ethics approval by the animal committee at the University of California, San Francisco. Male C57BL6/J on chow or HFD fed mice. HFD mice were fed a high-fat diet (60% kcal from fat) from 6 weeks until 22 weeks of age. All experiments on HFD mice were performed at 22-24 weeks total age (16-18 weeks on HFD). Age-matched male C57BL6/J mice on standard rodent chow diet were used as controls. For the lung injury model, 10-week-old male C57BL/6J mice were used. The animals were divided into three groups: the control group, the injured group, and the α-GalCer treated group. The animals in the control group received vehicle only (i.p.) on day 10. The injured group animals received bleomycin (3 U/kg) via the intratracheal route at the start of the experiment (day 0). The animals in the α-GalCer treated groups received bleomycin (3 U/kg) on day 0, and i.p. injection of α-GalCer (2 μg/mouse) on day 10. […]
Flow cytometry of iNKT cells. eWAT SVF cells were stained with PBS57 (α-GalCer-analog) loaded onto CD1d-PE tetramers prepared by the NIH Tetramer Core and anti-CD3-APC. […] For lung, 1×10^6 cells from each sample were used to quantify iNKT cells. […]

For assay [2], the system named is senescent preadipocytes (C12FDG^Hi) in eWAT of HFD mice. Briefly: C12FDG flow cytometry assay (SA-βgal activity) on eWAT SVF of HFD mice. On the procedure: MATERIALS AND METHODS. Mouse husbandry. All procedures involving mice were performed according to the IACUC standards following ethics approval by the animal committee at the University of California, San Francisco. Male C57BL6/J on chow or HFD fed mice. HFD mice were fed a high-fat diet (60% kcal from fat) from 6 weeks until 22 weeks of age. All experiments on HFD mice were performed at 22-24 weeks total age (16-18 weeks on HFD). Age-matched male C57BL6/J mice on standard rodent chow diet were used as controls. For the lung injury model, 10-week-old male C57BL/6J mice were used. The animals were divided into three groups: the control group, the injured group, and the α-GalCer treated group. The animals in the control group received vehicle only (i.p.) on day 10. The injured group animals received bleomycin (3 U/kg) via the intratracheal route at the start of the experiment (day 0). The animals in the α-GalCer treated groups received bleomycin (3 U/kg) on day 0, and i.p. injection of α-GalCer (2 μg/mouse) on day 10. The animals in all the groups were sacrificed on day 14, and lungs were harvested for isolation of primary pulmonary Alveolar Type II cells (ATII) on the same day. For the hydroxyproline assay, mice were euthanized 21 days after injury.
Epidydmal white adipose tissue stromal vascular fraction (eWAT SVF) isolation. eWAT SVF was isolated using standard protocols. Briefly, mice were euthanized, and epididymal fat pads were harvested, washed twice in D-PBS and minced. eWAT pads were digested with 1 U/ml Collagenase-D (Roche) in 1×HBSS containing 1% BSA (Sigma-Aldrich) for 1 hr at 37° C. Digested fat tissue was then strained twice through 100 μm strainers and neutralized with 30 ml of complete culture media (DMEM-F12 1:1, 10% FBS, 1×Penicillin-streptomycin). Samples were spun at 500 g for 5 minutes, shaken to resuspend the SVF pellet and then spun again. The resulting SVF pellet containing blood cells was lysed with ACKS buffer, washed in D-PBS and spun down. Total live SVF cells were counted using trypan blue and then used for various assays.
C12FDG flow cytometry assay. eWAT SVF cells isolated and counted as described above were adjusted to 3×10^6 cells/ml in complete culture media and incubated with 33 μM C12FDG for 1 hr in a 37° C. water bath. Cells were then spun down at 500 g for 5 minutes, washed with Cell Staining buffer, and stained with anti-CD45-APC (clone 30F-11) and anti-CD31-PE-Cy7 (clone 390) each at a 1:200 dilution on ice for 30 minutes. Cells were then washed in Cell Staining buffer and resuspended in Cell Staining buffer containing 1×7-AAD. Samples were analyzed on an Attune acoustic focusing cytometer. Gates were set as follows: cells (FSC-A/SSC-A), forward scatter singlets (FSC-H/FSC-A), side-scatter singlets (SSC-H/SSC-A), live cells (7-AAD^−), non-immune cells (CD45^−), non-endothelial cells (CD31^−) and analyzed for C12FDG fluorescence. […] Data were analyzed with FlowJo (v. 10). For Lung, 1×10^6 cells from each sample were used to perform the assay. The cells were incubated with 66 μm of C12FDG in sterile DMEM containing DNase for 1 hour at 37° C. Following the incubation, the cells were washed with cell staining buffer, blocked with anti CD16/32 mouse monoclonal antibody (1:1000, prepared by the UCSF monoclonal antibody core), and stained with APC anti-mouse CD45 (1:400), and 7-AAD (1:1000). The gating strategy followed selected 7-AAD^−, CD45^−, and C12FDG^+ cells. […]
A general note: Flow cytometry measures light scatter and fluorescence of single cells or particles in a stream.

A short description of assay [3]: Metabolic measurements in HFD-fed mice (fasting glucose, GTT, HOMA-IR). The conditions noted are these: 10 days after α-GalCer injection. As to the method:
α-GalCer activation of iNKT cells. iNKT cells were activated in vivo using α-GalCer as described in Peralbo et al., 2006. Decreased frequency and proliferative response of invariant Vα24Vβ11 natural killer T (iNKT) cells in healthy elderly. Biogerontology 7, 483-492. Briefly, HFD mice were i.p. injected with 200 μl of a 10 μg/ml α-GalCer solution (2 μg total) made up in 5.6% Sucrose, 5% Tween-20. On day 3 or 4 post-injection, mice were euthanized for various experiments, as indicated.
Metabolic measurements. Seventeen male HFD-fed C57BL6J mice were divided into the vehicle (n=8) and the α-GalCer treated group (n=9). Age-matched male C57BL6/J mice on a standard rodent chow diet were used as controls (n=8). A glucose tolerance test was performed 10 days after α-GalCer injection. Mice were fasted overnight (14 h) before being injecting 2 g/kg glucose intraperitoneally. Blood glucose was measured at 0, 15, 30, 60, and 120 min after glucose injection using a glucometer.

For `CCCCCCCCCCCCCCCCCCCCCCCCCC(=O)N[C@@H](CO[C@H]1O[C@H](CO)[C@H](O)[C@H](O)[C@H]1O)[C@H](O)[C@H](O)CCCCCCCCCCCCCC` [GalCer, alpha-Galactosylceramide], the “lung parenchymal iNKT cells (proportion of T cells)” value in assay [1] is given as “induced expansion of lung parenchymal iNKT cells”. Further, the “senescent cells (C12FDG+ SVF cells), Traj18^−/− HFD mice” value in assay [2] (HFD fed Traj18^−/− mice (lack invariant TCR chain) injected with GalCer) is “failed to reduce senescent cells in Traj18^−/− mice”. Besides, the “senescent cells (C12FDG+ SVF cells), WT HFD mice” value in assay [2] (HFD fed WT mice injected with GalCer) is reported as “reduction of senescent cells in WT HFD mice”. Further, in assay [2] (HFD mice injected with GalCer (2 μg i.p.) vs vehicle, FIG. 3A), the “number of C12FDG^Hi preadipocytes in eWAT” value was “deplete the number of these C12FDG^Hi cells to levels akin to those seen in lean control mice”. In assay [3] (2 g/kg glucose i.p. after 14 h fast, vs vehicle), the “glucose tolerance (GTT)” value is “improved glucose tolerance”. For the same compound, the “insulin sensitivity (HOMA-IR)” value in assay [3] (vs vehicle) is on record as “improved insulin sensitivity”. The fasting glucose result in assay [3] (vs vehicle-treated HFD-fed mice) is listed as “significantly lower fasting glucose”.
